The values below come from patent US6603057B1, “Heterogenous and homogeneous mouse variants lacking sno gene” (Japan Science and Technology Corporation, priority 1999, dated 2003).

Molecules are shown by their SMILES.

The subject of the data set is wild type and sno^+/− mice. The experiment in a line: Tumor susceptibility: survival after weekly carcinogen DMBA treatment. The format is in vivo, mouse. As to conditions: DMBA weekly to dorsal surface, observation period of 80 days. The procedure:
In the next experiment, in order to compare the tumor susceptibility of wild type and sno^+/− mice, the carcinogen 9,10-dimethyl-1,2-benzanthracene (DMBA) was administered every week. […] The major tumor type observed was malignant lymphomas, and fibromas were also found at a lower frequency. Lymphomas in sno^+/− mice were aggressive metastatic malignancies, and generated tumors in the thymus glands [refer to FIGS. 4(b) and (c)]. The fact that these originated from T-cells is due to the tumor cells homogeneously expressing the TCRαβ markers, but not the IgM marker [refer to FIGS. 4(d) and (e)].
DMBA treatments were initiated from the beginning at postnatal day 2-5 and continuing weekly thereafter by administering 50 μl of a solution containing DMBA 1.25 mg per ml acetone to the dorsal surface. Mice were monitored regularly and killed when overall health condition was deteriorated.
At first, 8-10 mice in each cohort were used for collecting histopathological informations, subsequently, the site of tumor and the site of metastatic organ were detected and specified by detailed pathological analysis.

Turning to `Cc1c2ccccc2c(C)c2c1ccc1ccccc12` [DMBA, 9,10-dimethyl-1,2-benzanthracene], the survived this treatment runs as follows: (sno^+/− female mice (n=20)) 30%; (sno^+/− male mice (n=20)) 50%. In addition, for the setting “wild-type mice (n=40)”, the “survival under this treatment” value is reported as “most of the wild-type mice (n=40) survived”.
